Assay [1] deals with naloxone-precipitated withdrawal signs in rats. Conditions: central (i.c.v.) injection; rats receiving morphine for five days; Maldonado et al, 1993; cited from earlier work.
Assay [2] concerns morphine withdrawal response in guinea-pigs. Conditions: systemic administration, only high doses active, Chahl & Johnston, 1992; cited from earlier work.
The next assay has as its target T1, NK-1 receptor (Meriones unguiculatus, UniProt Q5DUB1).
T1 construct: male or female Mongolian gerbils (35-70 g) are anaesthetised; from tissue; host or cells: brain of the living Mongolian gerbil (in vivo, agonist infused intracerebroventricularly)
The assay can be described thus: Gerbil foot-tapping (Assay 2), inhibition of foot tapping induced by central infusion of NK-1 receptor agonist GR73632. The class given is in vivo, Mongolian gerbils. Conditions: iv. From the text: ASSAY 2: Gerbil Foot-Tapping
CNS-penetrant NK-1 receptor antagonists for use in the present invention can be identified by their ability to inhibit foot tapping in gerbils induced by anxiogenic agents (such as pentagastrin) or central infusion of NK-1 receptor agonists such as GR73632, or caused by aversive stimulation such as foot shock or single housing, based on the method of Rupniak & Williams, Eur. J. Pharmacol., 1994, 265, 179.
Briefly, male or female Mongolian gerbils (35-70 g) are anaesthetised by inhalation of an isoflurane/oxygen mixture to permit exposure of the jugular vein in order to permit administration of test compounds or vehicle in an injection volume of 5 ml/kg i.v. Alternatively, test compounds may be administered orally or by subcutaneous or intraperitoneal routes. A skin incision is then made in the midline of the scalp to expose the skull. […]

Assay [3] relates to cisplatin-induced emesis in ferrets. The assay can be described thus: Ferret emesis (Assay 3), inhibition of cisplatin-induced emesis. Format: in vivo. Conditions: Mustela putorius, po, 60 minutes before cisplatin 10 mg/kg i.v.; 4 hours observation; read-out: ferret emesis: ID90. The protocol: ASSAY 3: Ferret Emesis […] Ten minutes later they are fed with approximately 100 g of tinned cat food. At 60 minutes following oral dosing, cisplatin (10 mg/kg) is given i.v. via a jugular vein catheter inserted under a brief period of halothane anaesthesia. The catheter is then removed, the jugular vein ligated and the skin incision closed. The ferrets recover rapidly from the anaesthetic and are mobile within 10-20 minutes. The animals are observed continuously during recovery from the anaesthetic and for 4 hours following the cisplatin injection. The numbers of retches and vomits occurring during the 4 hours after cisplatin administration are recorded by trained observers.

Structures are written as SMILES. Read-outs that look alike come from different tables or passages of the source. A value given as a limit tells only on which side of the number the result lay.

T1 sequence (Q5DUB1 whole entry, the tested form may be a part): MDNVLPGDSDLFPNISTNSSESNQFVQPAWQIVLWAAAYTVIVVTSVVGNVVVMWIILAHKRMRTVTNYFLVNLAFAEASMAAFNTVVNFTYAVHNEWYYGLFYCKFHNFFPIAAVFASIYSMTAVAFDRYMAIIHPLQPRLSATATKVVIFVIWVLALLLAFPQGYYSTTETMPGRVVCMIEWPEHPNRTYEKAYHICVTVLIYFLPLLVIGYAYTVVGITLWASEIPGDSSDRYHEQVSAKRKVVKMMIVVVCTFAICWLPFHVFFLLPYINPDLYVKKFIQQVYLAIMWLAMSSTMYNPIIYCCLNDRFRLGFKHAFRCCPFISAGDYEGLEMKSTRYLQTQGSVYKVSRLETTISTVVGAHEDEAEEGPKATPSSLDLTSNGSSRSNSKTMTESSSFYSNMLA

For the compound `COc1ccccc1CC(=N)N1CC2C(=O)CCC(c3ccccc3)(c3ccccc3)C2C1` (centres unmarked) [RP67580], the “attenuation of naloxone-precipitated withdrawal signs” value in assay [1] is listed as “could attenuate naloxone-precipitated withdrawal signs”.
For `COc1ccccc1CNC1C2CCN(CC2)C1C(c1ccccc1)c1ccccc1` (centres unmarked) [CP-96,345], the “doses active in blocking the withdrawal response” value in assay [2] is given as 20 mg/kg.
For `C[C@@H](O[C@H]1OCCN(Cc2n[nH]c(=O)[nH]2)[C@H]1c1ccc(F)cc1)c1cc(C(F)(F)F)cc(C(F)(F)F)c1` [2-(R)-(1-(R)-(3,5-bis(trifluoromethyl)phenyl)ethoxy)-3-(S)-(4-fluorophenyl)-4-(3-(5-oxo-1H,4H-1,2,4-triazolo)methyl)morpholine], the ED50 at NK-1 receptor (5 min, i.v., 5 mins., administered immediately prior to GR73632 challenge, read-out: gerbil foot-tapping (5 mins.): ID50) came out at 0.36 mg/kg; on NK-1 receptor (24 hours prior to central NK1 agonist challenge, read-out: gerbil foot-tapping (24 hrs.): ID50) it was 0.33 mg/kg. The ED90 in assay [3] was < 3 mg/kg.

Values taken from patent US5919781A, “Use of NK-1 receptor antogonists for treating substance use disorders” (Merck Sharp & Dohme Ltd., priority 1996, dated 1999).
